Some test systems named below: LOX IMVI; HT-29; Malme-3M; M14; SK-MEL-5; UACC-257; UACC-62; SK-MEL-28; SK-OV-3; HOP-62; NCI-H226; HCC 2998; A498; HL-60; SNB-19; SF-268; ACHN; SF-539; PC-3.
What all share (test): NCI tumour cell line growth inhibition, 48 h

Structures are written as SMILES.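 Assay format: 96-well plates, 48-hour exposure. GI50 marks 50% less growth.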 Active and inactive are the calls of the source. Cut-off read from the data, not from the text of the source: active = GI50 up to about 1.1 µM and inactive = higher. A value given as a limit tells only on which side of the number the result lay.

Take `CCN(CC)c1c(C(=O)/C=C/c2ccc(F)cc2)c(-c2ccccc2)nn(C)c1=O`: the GI50 with LOX IMVI is 7.35 µM (inactive); with HT-29, 6.5 µM (inactive); in the assay with Malme-3M it was 13.3 µM (inactive); in the assay on M14 it was 12.1 µM (inactive); in the assay on SK-MEL-5 it was 8.89 µM (inactive); in the assay on UACC-257 it was 6.89 µM (inactive). In addition, the GI50 in the assay on UACC-62 is 10.3 µM (inactive); in the assay with SK-MEL-28, 14.1 µM (inactive); in the assay on SK-OV-3 it was 11.9 µM (inactive); in the assay on HOP-62 it was 11.6 µM (inactive); in the assay with NCI-H226, 14.7 µM (inactive); with HCC 2998, 3.3 µM (inactive). Also, the GI50 with A498 is 7.57 µM (inactive); with HL-60, 2.9 µM (inactive); in the assay with SNB-19, 17 µM (inactive); in the assay with SF-268, 8.79 µM (inactive); with ACHN it was 6.9 µM (inactive).
`COc1ccc(C(=O)O[C@H]2[C@@H]3C=CO[C@@H](OC4OC(CO)C(O)C(O)C4O)[C@@H]3[C@@]3(CO)O[C@@H]23)cc1O` (stereo partly specified): the GI50 in the assay with LOX IMVI, with HT-29, in the assay with Malme-3M, in the assay on M14, in the assay with SK-MEL-5 and in the assay on UACC-257 was > 100 µM (inactive) in each case. For the same molecule, the GI50 in the assay on UACC-62, with SK-MEL-28, in the assay with SK-OV-3, in the assay on HOP-62, with HCC 2998 and with A498 was > 100 µM (inactive) in each case. The GI50 in the assay on HL-60, in the assay with SNB-19, in the assay on SF-268, with SF-539 and with ACHN was > 100 µM (inactive) each time.
Take `Cc1c2ccccc2c(=O)n2c(-c3ccccn3)cccc12`: the GI50 with LOX IMVI was > 100 µM (inactive); in the assay on HT-29 it was > 100 µM (inactive); in the assay on Malme-3M, > 100 µM (inactive); in the assay with M14, 78.7 µM (inactive); with SK-MEL-5, > 100 µM (inactive); in the assay on UACC-257, 94.8 µM (inactive). The GI50 with UACC-62, in the assay on SK-MEL-28, in the assay with SK-OV-3, in the assay with HOP-62, in the assay with NCI-H226 and with HCC 2998 was > 100 µM (inactive) in each case. Further, the GI50 in the assay with A498 is 29.8 µM (inactive); with HL-60, > 100 µM (inactive); in the assay with SNB-19 it was > 100 µM (inactive); with SF-268 it was > 100 µM (inactive); with SF-539, > 100 µM (inactive); in the assay with ACHN, > 100 µM (inactive).
For the molecule `COc1cc2c(cc1OCCN1CCN(CCOc3cc4c(cc3OC)C(=O)N3CCC[C@H]3C=N4)CC1)N=C[C@@H]1CCCN1C2=O`, the GI50 in the assay on HT-29 is 36 µM (inactive); in the assay on Malme-3M, 9.14 µM (inactive); in the assay with M14 it was 25.1 µM (inactive); in the assay on PC-3 it was 25.9 µM (inactive); in the assay with SK-MEL-5, 17.8 µM (inactive); in the assay with UACC-257, > 56.6 µM (inactive). For the same molecule, the GI50 in the assay with UACC-62 is 14.3 µM (inactive); with SK-MEL-28, 60 µM (inactive); in the assay with SK-OV-3, > 100 µM (inactive); with HOP-62 it was 30.5 µM (inactive); in the assay on NCI-H226, 19.4 µM (inactive); in the assay with A498, 37.1 µM (inactive). Further, the GI50 in the assay on HL-60 is 4.3 µM (inactive); in the assay on SNB-19 it was 35.5 µM (inactive); in the assay with SF-268, 13.1 µM (inactive); in the assay on SF-539, 10.2 µM (inactive); in the assay with ACHN, > 39.1 µM (inactive).
`CCN(CC)C(=O)Cc1c(C(=O)N(CC)CC)c(=O)nc2sccn12`: the GI50 in the assay with LOX IMVI, in the assay on HT-29, in the assay with Malme-3M, with M14, in the assay on UACC-257 and in the assay with UACC-62 was > 100 µM (inactive) throughout. For the same molecule, the GI50 with SK-MEL-28, in the assay on SK-OV-3, with HOP-62, in the assay with NCI-H226, with HCC 2998 and in the assay with A498 was > 100 µM (inactive) throughout. Also, the GI50 in the assay on HL-60, in the assay on SNB-19, with SF-268, in the assay with SF-539 and in the assay with ACHN was > 100 µM (inactive) throughout.
Turning to `O=C1c2cc([N+](=O)[O-])cnc2S(=O)(=O)N1c1ccc(Oc2ccccc2)cc1`, the GI50 with LOX IMVI, with Malme-3M, with M14, in the assay on PC-3, in the assay on UACC-62 and with SK-MEL-28 was > 100 µM (inactive) in each case. In addition, the GI50 in the assay with SK-OV-3, in the assay with HOP-62, in the assay on NCI-H226, in the assay with HCC 2998, in the assay with HL-60 and in the assay on SNB-19 was > 100 µM (inactive) in each case. Moreover, the GI50 in the assay on ACHN was > 100 µM (inactive).
For `CSc1ccc2c(cc1=O)[C@@H](NC(=O)c1ccc(Cl)cc1)CCc1cc(O)c(O)c(O)c1-2`, the GI50 is 18.6 µM (inactive) in the assay with LOX IMVI; > 100 µM (inactive) with HT-29; > 100 µM (inactive) in the assay on Malme-3M; 34.7 µM (inactive) in the assay with M14; 50.4 µM (inactive) in the assay on SK-MEL-5; > 100 µM (inactive) with UACC-257. For the same molecule, the GI50 is 22.5 µM (inactive) in the assay on UACC-62; 80 µM (inactive) in the assay with SK-MEL-28; > 100 µM (inactive) with SK-OV-3; 57.4 µM (inactive) in the assay on HOP-62; > 100 µM (inactive) in the assay with NCI-H226; > 100 µM (inactive) in the assay on HCC 2998. For the same molecule, the GI50 with A498 is > 100 µM (inactive); in the assay with HL-60, 27.5 µM (inactive); with SNB-19, 49.5 µM (inactive); in the assay with SF-268, > 100 µM (inactive); in the assay on SF-539, 29.8 µM (inactive); with ACHN, > 100 µM (inactive).
Regarding `O=c1nc(Oc2c(F)c(F)c(F)c(F)c2F)ccn1C1OC(CO)C(O)C1O` (stereo unspecified), the GI50 in the assay on LOX IMVI, with HT-29, with M14, in the assay on PC-3, in the assay on SK-MEL-5 and with UACC-257 was > 100 µM (inactive) in each case. Further, the GI50 in the assay with UACC-62, in the assay on SK-MEL-28, with SK-OV-3, with HOP-62, in the assay with HCC 2998 and in the assay on A498 was > 100 µM (inactive) throughout. For the same molecule, the GI50 in the assay on SNB-19, in the assay on SF-268, in the assay on SF-539 and in the assay on ACHN was > 100 µM (inactive) in each case.
On to `COC(=O)c1nc(N)nc(O)c1CCCCCc1c(O)nc(N)nc1C(=O)OC`, for which the GI50 in the assay on LOX IMVI, in the assay on HT-29, with Malme-3M, in the assay on M14, with SK-MEL-5 and in the assay with UACC-257 was > 50 µM (inactive) in each case. Besides, the GI50 in the assay with UACC-62, in the assay on SK-MEL-28, in the assay with SK-OV-3, in the assay on HOP-62, in the assay with HCC 2998 and in the assay with A498 was > 50 µM (inactive) each time. In addition, the GI50 in the assay with HL-60, with SNB-19, with SF-268, in the assay with SF-539 and in the assay on ACHN was > 50 µM (inactive) throughout.
As to `CCOC(=O)[C@@]1(C)CC(O)C(=O)N1C` (stereo partly specified), the GI50 in the assay on LOX IMVI, in the assay with HT-29, in the assay on Malme-3M, in the assay with M14, with PC-3 and with SK-MEL-5 was > 100 µM (inactive) each time. For the same molecule, the GI50 with UACC-257, with UACC-62, in the assay on SK-MEL-28, in the assay with SK-OV-3, with HOP-62 and in the assay with NCI-H226 was > 100 µM (inactive) in each case. Further, the GI50 with HCC 2998, in the assay on HL-60, in the assay with SNB-19, in the assay with SF-268, with SF-539 and in the assay on ACHN was > 100 µM (inactive) throughout.
Turning to `COc1cc(C(CC(OC)OC)=C(C#N)C#N)cc(OC)c1OC`, the GI50 is 10.5 µM (inactive) in the assay with LOX IMVI; 5.6 µM (inactive) with HT-29; 26.1 µM (inactive) in the assay with Malme-3M; 7.4 µM (inactive) in the assay on SK-MEL-5; 18 µM (inactive) in the assay on UACC-257; 26.7 µM (inactive) in the assay with UACC-62. For the same molecule, the GI50 with SK-MEL-28 was 36.3 µM (inactive); in the assay on SK-OV-3, 32.4 µM (inactive); with NCI-H226, 0.485 µM (active); in the assay with HCC 2998, 18.7 µM (inactive); with A498, 8.13 µM (inactive); in the assay with HL-60, 19.5 µM (inactive). Also, the GI50 with SNB-19 is 39.5 µM (inactive); in the assay on SF-268, 41.6 µM (inactive); in the assay on SF-539, 13.7 µM (inactive); with ACHN it was 26.7 µM (inactive).
On to `c1ccc2c(NCCCCCCNc3cccc4ccccc34)cccc2c1`, for which the GI50 was > 100 µM (inactive) in the assay on HT-29; > 100 µM (inactive) in the assay on Malme-3M; > 100 µM (inactive) in the assay with M14; 60.3 µM (inactive) in the assay with SK-MEL-5; > 100 µM (inactive) with UACC-257; 64.6 µM (inactive) in the assay on UACC-62. Also, the GI50 in the assay on SK-MEL-28, in the assay on SK-OV-3, in the assay on HOP-62, in the assay with NCI-H226, in the assay on HCC 2998 and with A498 was > 100 µM (inactive) in each case. Besides, the GI50 in the assay on HL-60 is 51.5 µM (inactive); in the assay on SNB-19, > 100 µM (inactive); in the assay on SF-268 it was > 100 µM (inactive); with SF-539, > 100 µM (inactive); in the assay with ACHN, > 100 µM (inactive).

The values are drawn from ChEMBL document CHEMBL1201862, “PubChem BioAssay data set” (2004).
